Laboratory results reported in PubChem BioAssay (NCI).
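Tested at 5 concentrations; 48 h exposure; 96-well plates; endpoints linearly interpolated, else capped at highest concentration. GI50 is the concentration that inhibits growth by half. TGI: concentration producing complete growth inhibition.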

How the values were obtained:
Assay in all cases: DTP human tumour cell line panel, 48 h
A498 renal = tested on: A498 renal
ACHN renal = tested on: ACHN renal
CCRF-CEM leukemia = tested on: CCRF-CEM leukemia
HCT-116 colon = tested on: HCT-116 colon
IGROV1 ovarian = tested on: IGROV1 ovarian
K-562 leukemia = tested on: K-562 leukemia
NCI-H522 lung = tested on: NCI-H522 lung
PC-3 prostate = tested on: PC-3 prostate
RXF 393 renal = tested on: RXF 393 renal
UACC-257 melanoma = tested on: UACC-257 melanoma

SMILES	GI50 (A498 renal)	TGI (A498 renal)	GI50 (ACHN renal)	TGI (ACHN renal)	GI50 (CCRF-CEM leukemia)	TGI (CCRF-CEM leukemia)	GI50 (HCT-116 colon)	TGI (HCT-116 colon)	GI50 (IGROV1 ovarian)	TGI (IGROV1 ovarian)	GI50 (K-562 leukemia)	TGI (K-562 leukemia)	GI50 (NCI-H522 lung)	TGI (NCI-H522 lung)	GI50 (PC-3 prostate)	TGI (PC-3 prostate)	GI50 (RXF 393 renal)	TGI (RXF 393 renal)	GI50 (UACC-257 melanoma)	TGI (UACC-257 melanoma)
COc1ccc(Cn2c(Br)c3c(c2-c2cc(OC)c(OC)c(OC)c2)CCc2sc(N)nc2-3)cc1	0.267 µM	2.36 µM	1.07 µM	25.7 µM	0.89 µM	4.4 µM	1.4 µM	> 100 µM	1.28 µM	9.19 µM	0.436 µM	> 32.9 µM	0.263 µM	1.09 µM	1.57 µM	> 100 µM	0.448 µM	14.8 µM	11.8 µM	51.3 µM
CC1=C(C(=O)Nc2ccc3[nH]ncc3c2)C(c2ccc(F)cc2)N=C(c2ccc(C(F)(F)F)nc2)N1 (centres undefined)	2.23 µM	9.32 µM	13.3 µM	> 25 µM	17 µM	> 25 µM	13.2 µM	> 25 µM	5.66 µM	> 25 µM	10 µM	> 25 µM	7.06 µM	> 25 µM	13.1 µM	> 25 µM	4.31 µM	> 23.5 µM	15.7 µM	> 25 µM
C=C(C)c1nc(Oc2ccccc2)nc(Oc2ccccc2)n1		31.1 µM		23 µM		9.25 µM		10.5 µM		22.4 µM		5.49 µM		2.73 µM		27.8 µM		8.11 µM		23 µM
CC(C)c1ccc2c(c1)CCC1C2CCCC1(C)NCc1ccccc1 (centres undefined)	11.5 µM	24.5 µM	10 µM	22.7 µM	5.32 µM	27.9 µM	4.21 µM	14.7 µM	6.43 µM	20.7 µM	1.46 µM	10.9 µM	1.68 µM	3.55 µM	6.06 µM	19.3 µM	2.44 µM	4.66 µM	2.52 µM	6.13 µM
CCOC(=O)C#Cc1c(C(=O)OCC)nnn1[C@@H]1O[C@H](COC)[C@@H](OC)[C@H]1OC	18.2 µM	32.9 µM	1.95 µM	3.9 µM	1.87 µM	4.93 µM	3.33 µM	10.7 µM	18.4 µM	39.6 µM	1.85 µM	7.97 µM	1.97 µM	3.9 µM	16.7 µM	31.7 µM	1.97 µM	4.14 µM	3.38 µM	8.29 µM
CN1CCN(C(=O)/C=C/c2ccc([N+](=O)[O-])o2)CC1	16.8 µM	34.3 µM	3.29 µM	13.1 µM	2.72 µM	27.9 µM	10.5 µM	22.4 µM	10.8 µM	36.4 µM	11 µM	40.4 µM	2.72 µM	5.74 µM	21.6 µM	> 100 µM	2.88 µM	12.4 µM	7.78 µM	21.2 µM
Cc1cccc(Oc2ccc(Nc3ncnc4ccc(NC(=O)CN(C)C)cc34)cc2Cl)c1	1.8 µM	9.18 µM	0.804 µM	4 µM	2.54 µM	8.14 µM	1.61 µM	3.09 µM	0.376 µM	2.41 µM	1.91 µM	4.63 µM	0.244 µM	1.98 µM	2.02 µM	6.32 µM	1.61 µM	3.19 µM	1.71 µM	3.3 µM
CCCCCCCCCCCCOC1C(C(COC2OC(C(O)CO)C3OC(C)(C)OC23)OC(=O)Nc2ccccc2)OC2OC(C)(C)OC21 (centres undefined)	12.4 µM	25.1 µM	4.82 µM	16.3 µM		6.66 µM	2.14 µM	5.79 µM	4.94 µM	15.3 µM	3.44 µM	16.9 µM	9.89 µM	29.2 µM	3.57 µM	13.1 µM	4.33 µM	12.6 µM	9.94 µM	25.2 µM
CC[C@]12C=CCN3CC[C@@]4(c5ccc(OC)cc5N(C)[C@H]4[C@@](O)(C(=O)OC)[C@@H]1OC(=O)CCCN1CCN(CCCC(=O)O[C@@H]4[C@]5(CC)C=CCN6CC[C@@]7(c8ccc(OC)cc8N(C)[C@H]7[C@@]4(O)C(=O)OC)[C@@H]65)CC1)[C@@H]32	1.6 µM	3.49 µM	0.857 µM	2.07 µM	1.23 µM	3.03 µM	0.317 µM	1.05 µM	0.635 µM	1.99 µM	0.18 µM	0.365 µM	1.78 µM	3.52 µM	0.35 µM	1.57 µM	0.484 µM	1.72 µM	1.96 µM	3.69 µM
O=S(=O)(Nc1ccccc1)c1ccc(C2CC3(Cl)C(Cl)=C(Cl)C2(Cl)C3(Cl)Cl)cc1 (centres undefined)	2.32 µM	6.29 µM	3.37 µM	10.5 µM	3.24 µM	11.9 µM	1.81 µM	3.44 µM	2.24 µM	5.13 µM	2.51 µM	9.84 µM	2.27 µM	5.67 µM	2.74 µM	10.2 µM	1.79 µM	3.38 µM	2.64 µM	6.27 µM
CN(C)[C@@H]1C(=O)C(C(=O)NCc2nc3[nH]cnc(=S)c3[nH]2)=C(O)[C@@]2(O)C(=O)C3=C(O)c4c(O)cccc4[C@@](C)(O)[C@H]3C[C@@H]12	> 100 µM	> 100 µM	16.1 µM	> 100 µM	1.02 µM	> 100 µM	3.3 µM	> 100 µM	16 µM	> 100 µM	1.41 µM	> 100 µM	> 100 µM	> 100 µM	29.7 µM	> 100 µM	26.1 µM	> 100 µM	> 100 µM	> 100 µM
C#CCCCCCC(=O)N[C@H]1C=C[C@@H]2/C=C(C)/C=C/[C@@H](C)[C@H]([C@H](C)[C@H](O)[C@@H](C)NC(C)=O)OC(=O)/C=C/C=C(C)\C=C\[C@]2(C)C1	0.0046 µM	0.0383 µM	< 0.004 µM	> 40 µM	0.479 µM	> 40 µM	< 0.004 µM	> 40 µM	0.00681 µM	> 40 µM	< 0.004 µM	> 40 µM	0.0091 µM	14.2 µM	< 0.004 µM	> 40 µM	< 0.004 µM	2.48 µM	< 0.004 µM	0.0324 µM
